# Experimental data from ChEMBL document CHEMBL4007389, “Discovery and evaluation of inhibitors to the immunosuppressive enzyme indoleamine 2,3-dioxygenase 1 (IDO1): Probing the active site-inhibitor interactions” (Eur J Med Chem, 2017).
# Legend:
# [1] = target: T1, Indoleamine 2,3-dioxygenase 1 (Homo sapiens, UniProt P14902); experiment: Inhibition of recombinant human IDO1 expressed in bacterial expression system using L-Tryptophan as substrate after 25 mins in absence of GSH and presence of tween20 by fluorescence assay
# Target sequence in this assay (P14902 whole entry): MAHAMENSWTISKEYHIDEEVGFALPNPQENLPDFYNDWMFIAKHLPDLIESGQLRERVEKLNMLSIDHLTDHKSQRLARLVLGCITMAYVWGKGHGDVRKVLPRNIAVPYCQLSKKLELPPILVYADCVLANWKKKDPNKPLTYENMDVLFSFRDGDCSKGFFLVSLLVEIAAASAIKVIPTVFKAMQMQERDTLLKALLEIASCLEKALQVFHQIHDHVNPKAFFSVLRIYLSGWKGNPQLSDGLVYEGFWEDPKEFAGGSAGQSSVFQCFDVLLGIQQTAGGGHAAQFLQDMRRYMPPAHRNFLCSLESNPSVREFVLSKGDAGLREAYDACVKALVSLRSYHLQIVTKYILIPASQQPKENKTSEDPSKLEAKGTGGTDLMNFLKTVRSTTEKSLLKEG
# [2] = target: Indoleamine 2,3-dioxygenase 1 (Homo sapiens, UniProt P14902, S167A)
# Chain of Indoleamine 2,3-dioxygenase 1 (Homo sapiens, UniProt P14902, S167A) (P14902 whole entry S167A): as the sequence (P14902 whole entry) above, with S167A counted along it
# Homo sapiens = species: Homo sapiens; experiment: Selectivity ratio of IC50 for recombinant human IDO1 S167A mutant expressed in Escherichia coli SG13009(pREP4) to IC50 for recombinant human IDO1 expressed in bacterial expression system
# [3] = target: T1, Indoleamine 2,3-dioxygenase 1; experiment: Inhibition of recombinant human IDO1 expressed in bacterial expression system using L-Tryptophan as substrate after 25 mins in absence of GSH and tween20 by fluorescence assay
# Target sequence in this assay (P14902 whole entry): as the sequence (P14902 whole entry) above
# [4] = target: T1, Indoleamine 2,3-dioxygenase 1; experiment: Inhibition of recombinant human IDO1 expressed in bacterial expression system using L-Tryptophan as substrate after 25 mins in presence of GSH and tween20 by fluorescence assay
# Target sequence in this assay (P14902 whole entry): as above
# [5] = target: T1, Indoleamine 2,3-dioxygenase 1; experiment: Inhibition of full length recombinant human His-tagged IDO1 expressed in mouse LLTC cells using L-tryptophan as substrate after 24 hrs; assay type: cell-based
# Target sequence in this assay (P14902 whole entry): as above
# [6] = Cytotoxicity against mouse LLTC cells assessed as reduction in cell viability after 24 hrs by MTT assay; assay type: cell-based; details: read-out: LC50
# [7] = target: T1, Indoleamine 2,3-dioxygenase 1; details: 30 uM
# Target sequence in this assay (P14902 whole entry, looked up): as the sequence (P14902 whole entry) above
# [8] = target: T1, Indoleamine 2,3-dioxygenase 1; experiment: Irreversible inhibition of recombinant human IDO1 expressed in bacterial expression system at 3 uM using L-Tryptophan as substrate after preincubated for 90 mins followed by 100 fold compound dilution measured after 15 mins by fluorescence assay relative to control
# Target sequence in this assay (P14902 whole entry, looked up): as the sequence (P14902 whole entry) above
# [9] = system: Indoleamine 2,3-dioxygenase 1 (Homo sapiens), P14902 [S167A]; experiment: Inhibition of recombinant human IDO1 S167A mutant expressed in Escherichia coli SG13009(pREP4) at 400 uM using L-Tryptophan as substrate after 25 mins by fluorescence assay relative to control
# Chain of Indoleamine 2,3-dioxygenase 1 (Homo sapiens), P14902 [S167A] (P14902 whole entry S167A): as the sequence (P14902 whole entry) above, with S167A counted along it
# [10] = target: T1, Indoleamine 2,3-dioxygenase 1; experiment: Inhibition of recombinant human IDO1 expressed in bacterial expression system at 400 uM using L-Tryptophan as substrate after 25 mins by fluorescence assay relative to control
# Target sequence in this assay (P14902 whole entry, looked up): as the sequence (P14902 whole entry) above
# [11] = target: T1, Indoleamine 2,3-dioxygenase 1; experiment: Inhibition of recombinant human IDO1 expressed in bacterial expression system at 250 uM using L-Tryptophan as substrate after 25 mins by fluorescence assay relative to control
# Target sequence in this assay (P14902 whole entry, looked up): as the sequence (P14902 whole entry) above
# [12] = system: Indoleamine 2,3-dioxygenase 1 (Homo sapiens), P14902 [S167A]; experiment: Inhibition of recombinant human IDO1 S167A mutant expressed in Escherichia coli SG13009(pREP4) at 20 uM using L-Tryptophan as substrate after 25 mins by fluorescence assay relative to control
# [13] = target: T1, Indoleamine 2,3-dioxygenase 1; experiment: Inhibition of recombinant human IDO1 expressed in bacterial expression system at 100 uM using L-Tryptophan as substrate after 25 mins by fluorescence assay relative to control
# Target sequence in this assay (P14902 whole entry, looked up): as the sequence (P14902 whole entry) above
# [14] = system: Indoleamine 2,3-dioxygenase 1 (Homo sapiens), P14902 [C129A]; experiment: Inhibition of recombinant human IDO1 C129A mutant expressed in Escherichia coli SG13009(pREP4) at 20 uM using L-Tryptophan as substrate after 25 mins by fluorescence assay relative to control
# Chain of Indoleamine 2,3-dioxygenase 1 (Homo sapiens), P14902 [C129A] (P14902 whole entry C129A): as the sequence (P14902 whole entry) above, with C129A counted along it
# [15] = target: Indoleamine 2,3-dioxygenase 1 (Homo sapiens, UniProt P14902, C129A); experiment: Inhibition of recombinant human IDO1 C129A mutant expressed in Escherichia coli SG13009(pREP4) using L-Tryptophan as substrate after 25 mins by fluorescence assay
# Chain of Indoleamine 2,3-dioxygenase 1 (Homo sapiens, UniProt P14902, C129A) (P14902 whole entry C129A): as the sequence (P14902 whole entry) above, with C129A counted along it
# [16] = target: T1, Indoleamine 2,3-dioxygenase 1; experiment: Inhibition of recombinant human IDO1 expressed in bacterial expression system at 50 uM using L-Tryptophan as substrate after 25 mins by fluorescence assay relative to control
# Target sequence in this assay (P14902 whole entry, looked up): as the sequence (P14902 whole entry) above
# [17] = target: T1, Indoleamine 2,3-dioxygenase 1; experiment: Inhibition of recombinant human IDO1 expressed in bacterial expression system at 200 uM using L-Tryptophan as substrate after 25 mins by fluorescence assay relative to control
# [18] = target: T1, Indoleamine 2,3-dioxygenase 1; experiment: Inhibition of recombinant human IDO1 expressed in bacterial expression system at 350 uM using L-Tryptophan as substrate after 25 mins by fluorescence assay relative to control
# [19] = target: T1, Indoleamine 2,3-dioxygenase 1; experiment: Inhibition of recombinant human IDO1 expressed in bacterial expression system at 150 uM using L-Tryptophan as substrate after 25 mins by fluorescence assay relative to control
# [20] = target: T1, Indoleamine 2,3-dioxygenase 1; details: 50 uM
# [21] = target: T1, Indoleamine 2,3-dioxygenase 1; details: 80 uM
Compound,IC50 [1] [µM],IC50 [2] [µM],Ratio IC50 (Homo sapiens),also measured
Cc1cc(I)ccc1Nc1cc2nonc2cc1C(=O)O,41,42,1,
Clc1ccc(SCNc2ccccc2Cl)cc1,4.5,0.87,0.2,IC50 [3]: 5.5 µM; IC50 [4]: 1.5 µM; IC50 [5]: 6.3 µM; CC50 at 24 h [6]: 40 µM; inhibition [7]: < 25%
Cc1ccccc1C1=[N+]([O-])c2ccccc2C1=O,0.46,2.2,5,inhibition [8]: > 75%; IC50 [5]: 3.9 µM; CC50 at 24 h [6]: 12 µM
Oc1ccc(-c2nc3c4ccccc4c4ccccc4c3[nH]2)cc1,522,,> 2,inhibition [9]: 14%
O=[N+]([O-])c1ccc(NCSc2ccc(Cl)cc2)cc1,0.8,0.1,0.125,CC50 at 24 h [6]: 40 µM
Oc1ccccc1-c1nc2ccccc2[nH]1,,,,inhibition [10]: 1%
O=[N+]([O-])c1ccccc1NCSc1ccc(Cl)cc1,63,,,IC50 [5]: 6.3 µM; CC50 at 24 h [6]: 52 µM
COC(=O)c1cc(F)c2nonc2c1Nc1ccc(I)cc1F,,,,inhibition [11]: 3%
CC[C@@H](CNc1cc(OC)cc2cccnc12)NC1CCCCC1,54.1,1000,18.5,inhibition [12]: -6%
CC(=O)NC1=C(c2ccccc2)C(=O)c2ccccc21,,,,inhibition [13]: 14%
Cc1cccc2c1c1ccc3c(c1n2C)C(=O)C=CC3=O,35.6,1000,28.1,inhibition [12]: -5%
Nc1nonc1C(=NO)Nc1ccc(F)c(Cl)c1,,,,CC50 at 24 h [6]: > 5 µM
c1ccc2c(c1)Nc1ccncc1S2,422,,,inhibition [14]: 38.8%; IC50 [15]: 31.6 µM
O=[N+]([O-])c1ccc(Sc2cccc[n+]2[O-])c2nonc12,24 to 60,108 to 1000,5 to 16.7,inhibition [12]: -1%
CCn1c2ccccc2nc2cc3c(cc21)c(Cl)c(=O)c1ccccc13,42.5,980,23.1,inhibition [12]: 2%
O=[N+]([O-])c1ccc(Sc2ccc(F)cc2)c2nonc12,8.8,17,2,IC50 [5]: 4.6 µM; CC50 at 24 h [6]: > 50 µM
Cc1ccccc1-c1nc2ccccc2[nH]1,,,,inhibition [10]: -2%
O=[N+]([O-])c1cccc2nsnc12,320,614,2,
COC12C(COC(N)=O)C3=C(C(=O)C(C)=C(N)C3=O)N1CC1C2N1C (stereo not drawn),15.7,1000,63.6,inhibition [12]: -4%

Compound,IC50 [1] [µM],IC50 [2] [µM],Ratio IC50 (Homo sapiens),also measured
Fc1ccccc1-c1nc2c3ccccc3c3ccccc3c2[nH]1,231,108,0.5,
NNC(=O)CNc1cccc(Br)c1,1000,,,inhibition [14]: 30.8%; IC50 [15]: 44.9 µM
c1ccc(-c2nc3c4ccccc4c4ccccc4c3[nH]2)cc1,,,,inhibition [11]: 8%
Oc1cccc(-c2nc3c4ccccc4c4ccccc4c3[nH]2)c1,112,173,2,
O=C(O)c1cc(F)c2nonc2c1Nc1ccc(I)cc1F,43,47,1,IC50 [5]: 168 µM; CC50 at 24 h [6]: > 233 µM
C=Cc1cc(OC)c2c(c1)c(=O)oc1c2cc(OC)c2c(O)ccc([C@@H]3O[C@H](C)[C@H](O)[C@@](C)(O)[C@H]3O)c21,22.6,230,10.2,inhibition [12]: 8%
CC1=NC(SCc2ccc(Cl)cc2Cl)=NC(=O)C1,,,,inhibition [10]: -8%; IC50 [5]: 217 µM; CC50 at 24 h [6]: > 125 µM
c1ccc(-c2c[nH]cn2)cc1,,,,CC50 at 24 h [6]: > 1150 µM
COc1ccc2c(c1)c1ccc3c(c1n2C)C(=O)C=CC3=O,25.5,1000,39.3,inhibition [12]: -5%
O=C1C(c2ccccc2)=[N+]([O-])c2ccccc21,0.87,3,3,IC50 [5]: 2.3 µM; CC50 at 24 h [6]: 14 µM
COc1ccc(C2=C(N)c3ccccc3C2=O)cc1,,,,inhibition [16]: 13%
O=C1c2ccccc2CC1c1ccccc1 (stereo not drawn),,,,inhibition [17]: 21%
CC1=CC(C)(C)NC(=S)N1c1cccc2cc(S(N)(=O)=O)ccc12,27.6,1000,36.2,inhibition [12]: -8%
CC(=O)OCCn1c2nc(=O)[nH]c(=O)c-2nc2cc(C)c(C)cc21,31.3,1000,32,inhibition [12]: -8%
c1ccc(NCCSc2nc3ccccc3s2)cc1,115,,,inhibition [14]: 70.8%; IC50 [15]: 8.2 µM
COc1ccc(-c2cc3ccccc3[nH]2)cc1,,,,inhibition [17]: 16%
Sc1ccc(Cl)cc1,7.9,3.5,0.5,IC50 [5]: 9.2 µM; CC50 at 24 h [6]: 35 µM
O=C1C(c2ccccc2)=Nc2ccccc21,,,,inhibition [18]: 9%; IC50 [5]: 114 µM; CC50 at 24 h [6]: 220 µM
CCC1=C(c2ccccc2)C(=O)c2ccccc21,,,,inhibition [19]: 20%

Compound,IC50 [1] [µM],IC50 [2] [µM],Ratio IC50 (Homo sapiens),also measured
COc1ccc(C2=[N+]([O-])c3ccccc3C2=O)cc1,1.6,63,39,IC50 [5]: 2.3 µM; CC50 at 24 h [6]: 42 µM
Cc1ccc([S+]([O-])c2ccc([N+](=O)[O-])c3nonc23)cc1 (stereo not drawn),12,0.66,0.055,IC50 [3]: 14 µM; IC50 [4]: 2.1 µM; IC50 [5]: 15 µM; CC50 at 24 h [6]: 29 µM; inhibition [20]: > 75%
NC1=C(c2ccccc2)C(=O)c2ccccc21,,,,inhibition [13]: 14%
Cc1ccc(NCSc2ccc(Cl)cc2)cc1,,,,inhibition [11]: -1%
O=c1c(O)cccc2cc(O)c(O)c(O)c12 [PURPUROGALLIN],60,1000,16.7,inhibition [12]: -4%
Cc1ccccc1-c1nc2c3ccccc3c3ccccc3c2[nH]1,512,464,1,
Oc1ccccc1-c1nc2c3ccccc3c3ccccc3c2[nH]1,3.3 to 9,26 to 980,8 to 109,inhibition [12]: 2%; IC50 [3]: 7.8 µM; IC50 [4]: 4.9 µM; IC50 [5]: 52 µM; CC50 at 24 h [6]: > 100 µM; inhibition [21]: < 25%
COc1c(O)ccc2c1CN1CCc3cc4c(cc3C1C2)OCO4 (stereo not drawn),35.6,1000,28.1,
COc1ccc(C2=Nc3ccccc3C2=O)cc1,,,,inhibition [18]: 5%
COc1cc2c(cc1OC)[N+]([O-])=C(c1ccccc1)C2=O,4.1 to 60,206 to 1000,16.7 to 50,inhibition [12]: 0%; IC50 [3]: 9.3 µM; IC50 [4]: 1.5 µM; IC50 [5]: 4.3 µM; CC50 at 24 h [6]: 25 µM
Cc1ccc2c(c1)c1ccc3c(c1n2C)C(=O)C=CC3=O,46.7,1000,21.4,inhibition [12]: -4%
Cc1cc(I)ccc1Nc1cc2no[n+]([O-])c2cc1C(=O)O,23,,> 44,inhibition [9]: 2%
O=C1c2ccccc2C(=O)C1c1ccccc1,,,,inhibition [10]: 20%
COc1c(NC(C)=O)c2ccccc2c2ccccc12,35.6,1000,28.1,inhibition [12]: -9%
O/N=C1\c2ccccc2NC1c1ccccc1 (stereo not drawn),510,366,1,
O=[N+]([O-])c1ccc(Nc2ccc(Br)cc2)c2nonc12,68,,,
COc1ccc(Nc2ccc([N+](=O)[O-])c3nonc23)cc1,96,,,
Cn1c2ccccc2c2ccc3c(c21)C(=O)C=CC3=O,42.5,1000,23.5,inhibition [12]: -2%
CC(=O)OC1=C(c2ccccc2)C(=O)c2ccccc21,266,,,
